Reference: article PMC12195982, “Design, Synthesis, and In Vitro Evaluation of 4-(Arylchalcogenyl)methyl)-1H-1,2,3-triazol-1-yl-menadione: Exploring Their Potential Against Tuberculosis” (Pharmaceuticals, 2025)
Values after ≈ are worked out from the molar mass of the structure shown. Read-outs that look alike come from different tables or passages of the source.

Experiments:
[1] = test system: Mtb strain H37Rv ATCC 27294; test: Microplate Alamar Blue Assay (MABA), susceptible strain; assay type: cell-based; settings: Mycobacterium tuberculosis
VERO cell line = assay type: cell-based; settings: for cytotoxicity: MTT method, VERO cell line
Experimental: First, a VERO cell line suspension was prepared and distributed into each of the 96 wells of the culture plate, which was then incubated for 48 h to allow the cells to adhere. After this period, the suspension medium was discarded, and the cells were exposed to the substances under study, leaving them in the wells for a period of between 24 and 48 h. After this, the substance was discarded, and the cells were washed with a buffer, with MTT being added, followed by a 3 h incubation. After this period, the MTT was discarded, and Dimethyl sulfoxide (DMSO) was added to solubilize the formazan crystals generated. Finally, the absorbance of each well of the plate was obtained using a microplate spectrophotometer. The absorbance was quantified based on the readings that the equipment makes, based on the different intensities of the purple color in the wells of the plate; the more purple the well, the more viable cells there are.

Mtb = settings: cited from earlier work
protein kinase B (PknB) = settings: cited from earlier work
[2] = Mtb H37Rv, strain sensitive to all first- and second-line drugs, MABA, triplicate, read-out: MIC
[3] = as quoted in sections 2.2 and 2.3, strain not stated, read-out: MIC (antimycobacterial activity)

| Compound | MIC [1, 2] [µg/mL] | also measured |
| --- | --- | --- |
| CC1=C(Cn2cc(C[Se]c3ccc(Cl)cc3)nn2)C(=O)c2ccccc2C1=O [Compound 9b, 2-((4-(((4-chlorophenyl)selanyl)methyl)-1H-1,2,3-triazolyl)methyl)-3-methylnaphthalene-1,4-dione] | 3.2 (≈ 7.01 µM) | MIC [1, 3]: 3.2 µg/mL (≈ 7.01 µM); cytotoxicity (VERO cell line): minimal cytotoxicity; toxicity at concentrations of up to 100 µg/mL (VERO cell line): non-toxic |
| O=C1NC(c2ccc(OCc3cn(-c4ccc(F)cc4F)nn3)cc2)Nc2ccccc21 (centres unmarked) [Compound 4] | – | MIC (Mtb; anti-TB action): 0.78 µg/mL (≈ 1.8 µM) |
| C=CCC1[Se]c2ccccc2C1=O (centres unmarked) [Compound 1] | – | MIC (Mtb; anti-TB activity): 12.5 µg/mL (≈ 52.7 µM) |
| C/C(=N/N=C1/NC(=O)CS1)c1ccc(-c2ccccc2)cc1 [Compound 2] | – | MIC (Mtb; anti-TB activity): 12.5 µg/mL (≈ 40.4 µM) |
| CC1=C(Cn2cc(C[Se]c3cccc(C(F)(F)F)c3)nn2)C(=O)c2ccccc2C1=O [Compound 9c] | ≤ 49.9 | – |
| CC1=C(Cn2cc(C[Se]c3ccccc3)nn2)C(=O)c2ccccc2C1=O [Compound 9a, 2-methyl-3-((4-((phenylselanyl)methyl)-1H-1,2,3-triazolyl)methyl)naphthalene-1,4-dione] | 6.23 (≈ 14.8 µM) | MIC [1, 3]: 6.76 µg/mL (≈ 16 µM); cytotoxicity (VERO cell line): minimal cytotoxicity; toxicity at concentrations of up to 100 µg/mL (VERO cell line): non-toxic |
| CC1=C(C(c2ccccc2)n2cc(CSc3ccccc3)nn2)C(=O)c2ccccc2C1=O (centres unmarked) [Compound 10g, 2-methyl-3-(phenyl(4-((phenylthiol)methyl)-1H-1,2,3-triazolyl)methyl)naphthalene-1,4-dione] | > 100 | – |
| CC1=C(C(C)n2cc(C[Se]c3ccccc3)nn2)C(=O)c2ccccc2C1=O (centres unmarked) [Compound 9f, 2-methyl-3-(1-(4-((phenylselanyl)methyl)-1H-1,2,3-triazolyl)ethyl)naphthalene-1,4-dione] | 6.23 (≈ 14.3 µM) | MIC [1, 3]: > 43.6 µg/mL |
| CC1=C(C(c2ccc(C)cc2)n2cc(C[Se]c3ccccc3)nn2)C(=O)c2ccccc2C1=O (centres unmarked) [Compound 9h, 2-methyl-3-((4-((phenylselanyl)methyl)-1H-1,2,3-triazolyl)(p-methylphenyl)methyl) naphthalene-1,4-dione] | 24.9 (≈ 48.7 µM) | cytotoxicity (VERO cell line): minimal cytotoxicity; toxicity at concentrations of up to 100 µg/mL (VERO cell line): non-toxic |
| CC1=C(C(c2ccc(C)cc2)n2cc(CSc3ccccc3)nn2)C(=O)c2ccccc2C1=O (centres unmarked) [Compound 10h, 2-methyl-3-((4-((phenylthiol)methyl)-1H-1,2,3-triazolyl)(p-methylphenyl)methyl)naphthalene-1,4-dione] | > 100 | – |
| CC1=C(Cn2cc(CSCc3ccco3)nn2)C(=O)c2ccccc2C1=O [Compound 10e, 2-((4-(((furan-2-ylmethyl)thiol)methyl)-1H-1,2,3-triazolyl)methyl)-3-methylnaphthalene-1,4-dione] | > 100 | – |
| O=C1c2c(O)ccc(O)c2C(=O)c2c(NCCNCCO)ccc(NCCNCCO)c21 [co-crystallized ligand, 1,4-dihydroxy-5,8-bis({2-[(2-hydroxyethyl)amino]ethyl}amino)-9,10-anthracenedione] | – | IC50 (protein kinase B (PknB)): 800 nM |
| NNC(=O)c1ccncc1 [INH, isoniazid, reference compound] | 0.12 (≈ 0.875 µM) | – |
| CC1=C(Cn2cc(CSc3ccc(Cl)cc3)nn2)C(=O)c2ccccc2C1=O [Compound 10b, 2-((4-(((4-chlorophenyl)thiol)methyl)-1H-1,2,3-triazolyl)methyl)-3-methylnaphthalene-1,4-dione] | > 100 | – |
| CC1=C(Cn2cc(C[Se]c3c(C)cc(C)cc3C)nn2)C(=O)c2ccccc2C1=O [Compound 9d, 2-((4-((2,4,6-trimethyl-phenylselanyl)methyl)-1H-1,2,3-triazolyl)methyl)-3-methylnaphthalene-1,4-dione] | > 99.9 | – |
| CC1=C(Cn2cc(CSc3ccc(C)cc3)nn2)C(=O)c2ccccc2C1=O [Compound 10c, 2-methyl-3-((4-((p-methylphenylthiol)methyl)-1H-1,2,3-triazolyl)methyl)naphthalene-1,4-dione] | > 100 | – |
| CC1=C(C(c2ccccc2)n2cc(C[Se]c3ccccc3)nn2)C(=O)c2ccccc2C1=O (centres unmarked) [Compound 9g, 2-methyl-3-(phenyl(4-((phenylselanyl)methyl)-1H-1,2,3-triazolyl)methyl)naphthalene-1,4-dione] | 12.5 (≈ 25.1 µM) | MIC [1, 3]: 3.12 µg/mL (≈ 6.26 µM); cytotoxicity (VERO cell line): minimal cytotoxicity; toxicity at concentrations of up to 100 µg/mL (VERO cell line): non-toxic |
| CC1=C(C(C)n2cc(CSc3ccccc3)nn2)C(=O)c2ccccc2C1=O (centres unmarked) [Compound 10f, 2-methyl-3-(1-(4-((phenylthiol)methyl)-1H-1,2,3-triazolyl)ethyl)naphthalene-1,4-dione] | 100 (≈ 257 µM) | – |
| CC1=C(Cn2cc(CSc3ccccc3)nn2)C(=O)c2ccccc2C1=O [Compound 10a, 2-methyl-3-((4-((phenylthiol)methyl)-1H-1,2,3-triazolyl)methyl)naphthalene-1,4-dione] | 100 (≈ 267 µM) | – |
| O=C1NC(c2ccc(OCc3cn(-c4ccc(F)c(F)c4)nn3)cc2)Nc2ccccc21 (centres unmarked) [Compound 5] | – | MIC (Mtb; anti-TB action): 3.12 µg/mL (≈ 7.2 µM) |
| NC(=O)c1cnccn1 [PZA, pyrazinamide, reference compound] | 100 (≈ 813 µM) | – |
| CC1=C(Cn2cc(C[Se]c3ccc4ccccc4c3)nn2)C(=O)c2ccccc2C1=O [Compound 9e, 2-methyl-3-((4-((naphthalenylselanyl)methyl)-1H-1,2,3-triazolyl)methyl)naphthalene-1,4-dione] | 99.9 (≈ 211 µM) | – |
| CC1=C(Cn2cc(CSc3ccccc3C)nn2)C(=O)c2ccccc2C1=O [Compound 10d, 2-methyl-3-((4-((o-methylphenylthiol)methyl)-1H-1,2,3-triazolyl)methyl)naphthalene-1,4-dione] | > 100 | – |
